Source: patent US12338237B2, “Derivatives having 1,2,3,4-tetrahydronaphthalene moiety or pharmaceutically acceptable salt thereof and pharmaceutical compositions comprising the same” (YUHAN CORPORATION, priority 2019, dated 2025)

Columns and labels:
[1] = tested on: GM1 production; assay: cells; format: cell-based; conditions: Homo sapiens, Jurkat, 72 h
[2] = biological target: glucosylceramide synthase (GCS) (Homo sapiens (Human), UniProt Q16739); assay: Evaluation of inhibitory activities against GCS (enzyme reaction with A549 cell lysate, NBD C6-ceramide, HPLC fluorescence); format: biochemical; conditions: GCS activity in A549 cell lysate, 37° C. for 90 minutes
Chain of glucosylceramide synthase (GCS) (Q16739 whole entry, looked up): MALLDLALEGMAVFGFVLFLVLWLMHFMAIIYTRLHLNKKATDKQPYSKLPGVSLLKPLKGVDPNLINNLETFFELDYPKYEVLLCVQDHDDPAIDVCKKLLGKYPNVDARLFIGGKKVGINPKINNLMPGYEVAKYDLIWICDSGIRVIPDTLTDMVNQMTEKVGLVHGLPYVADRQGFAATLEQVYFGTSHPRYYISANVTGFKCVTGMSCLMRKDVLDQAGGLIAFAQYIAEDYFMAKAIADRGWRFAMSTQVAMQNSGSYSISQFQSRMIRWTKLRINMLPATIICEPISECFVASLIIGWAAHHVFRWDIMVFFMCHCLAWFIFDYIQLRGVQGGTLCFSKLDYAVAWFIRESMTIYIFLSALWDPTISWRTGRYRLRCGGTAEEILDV
Protocol: Ibiglustat, known as a GCS inhibitor, was used as a control.
After the cells attached to the culture dish were washed with phosphate buffered saline (PBS), the cells were scraped off with a cell scraper and then centrifuged (4000 rpm, 3 min, 4° C.) to collect the cells in a 50 ml tube. The cell pellets were suspended in a lysis buffer (50 mM HEPES, pH 7.3, containing 1× the protease/phosphatase inhibitor cocktail), lysed by sonication, and then the lysate was centrifuged (13000 rpm, 10 min, 4° C.). The obtained supernatant was used for the quantitative analysis of proteins. The amount of proteins was measured using the BCA protein assay kit, using bovine serum albumin as a standard.
Enzymatic reactions were initiated by sequentially adding the following reaction materials to a 96 deep-well plate. Thereafter, the enzymatic reactions were performed at 37° C. for 90 minutes.
The enzymatic reactions were stopped by adding 100 μl of chloroform/methanol (2:1, v/v). After vortexing for 15 seconds, each mixture was centrifuged (4000 rpm, 10 min, 18° C.). The lower layer (50 μl) was transferred to a new 96 deep-well plate and dried with a reduced concentrator.
Data analysis was performed by the following equations. % Area (Sample)=Area (GlcCer)/[Area (Cer)+Area (GlcCer)]×100 % GCS activity=[Area(Sample)−Area(ibiglustat)]/[Area(DMSO)−Area(ibiglustat)]×100

SMILES	IC50 [1]	IC50 [2]
CCCCOc1c(C)cc(-c2ccc3c(c2)CCC(C)(C)C3NC(=O)O[C@@H]2CN3CCC2CC3)cc1C (stereo partly drawn) [Example 147, (S)-quinuclidin-3-yl (6-(4-butoxy-3,5-dimethylphenyl)-2,2-dimethyl-1,2,3,4-tetrahydronaphthalen-1-yl)carbamate]	0.1 nM	1 nM
O=C(NC1CCCc2cc(-c3cc(Cl)cc(Cl)c3)ccc21)O[C@@H]1CN2CCC1CC2 (stereo partly drawn) [Example 24, (S)-quinuclidin-3-yl (6-(3,5-dichlorophenyl)-1,2,3,4-tetrahydronaphthalen-1-yl)carbamate]	23.1 nM	9.1 nM
O=C(NC1c2ccc(-c3ccc(C4CC4)cc3)cc2CCC12CC2)O[C@@H]1CN2CCC1CC2 (stereo partly drawn) [Example 226, (S)-quinuclidin-3-yl (6′-(4-cyclopropylphenyl)-3′,4′-dihydro-1′H-spiro[cyclopropane-1,2′-naphthalen]-1′-yl)carbamate]	10.8 nM	0.93 nM
O=C(NC1c2cc(-c3ccccc3OC(F)(F)F)ccc2CCC12CC2)O[C@@H]1CN2CCC1CC2 (stereo partly drawn) [Example 182, (S)-quinuclidin-3-yl (7′-(2-(trifluoromethoxy)phenyl)-3′,4′-dihydro-1′H-spiro[cyclopropane-1,2′-naphthalen]-1′-yl)carbamate]	40.4 nM	11.9 nM
COCOc1ccc(-c2ccc3c(c2)CCCC3NC(=O)O[C@@H]2CN3CCC2CC3)cc1 (stereo partly drawn) [Example 26, (S)-quinuclidin-3-yl (6-(4-(methoxymethoxy)phenyl)-1,2,3,4-tetrahydronaphthalen-1-yl)carbamate]	30.8 nM	6.61 nM
CC(C)c1ccc(-c2ccc3c(c2)CCCC3NC(=O)O[C@@H]2CN3CCC2CC3)cc1 (stereo partly drawn) [Example 34, (S)-quinuclidin-3-yl (6-(4-isopropylphenyl)-1,2,3,4-tetrahydronaphthalen-1-yl)carbamate]	298 nM	6.1 nM
Cc1cccc(-c2ccc3c(c2)C(NC(=O)O[C@@H]2CN4CCC2CC4)CCC3)c1 (stereo partly drawn) [Example 85, (S)-quinuclidin-3-yl (7-(m-tolyl)-1,2,3,4-tetrahydronaphthalen-1-yl)carbamate]	192 nM	74.3 nM
CCc1cccc(-c2ccc3c(c2)CCC(C)(C)C3NC(=O)O[C@@H]2CN3CCC2CC3)c1 (stereo partly drawn) [Example 127, (S)-quinuclidin-3-yl (6-(3-ethylphenyl)-2,2-dimethyl-1,2,3,4-tetrahydronaphthalen-1-yl)carbamate]	2 nM	1.92 nM
O=C(NC1c2ccc(-c3cccc(OC(F)(F)F)c3)cc2CCC12CC2)O[C@@H]1CN2CCC1CC2 (stereo partly drawn) [Example 193, (S)-quinuclidin-3-yl (6′-(3-(trifluoromethoxy)phenyl)-3′,4′-dihydro-1′H-spiro[cyclopropane-1,2′-naphthalen]-1′-yl)carbamate]	21.6 nM	20.9 nM
O=C(NC1c2cc(-c3ccc(Cl)cc3)ccc2CCC12CC2)O[C@@H]1CN2CCC1CC2 (stereo partly drawn) [Example 172, (S)-quinuclidin-3-yl (7′-(4-chlorophenyl)-3′,4′-dihydro-1′H-spiro[cyclopropane-1,2′-naphthalen]-1′-yl)carbamate]	67.9 nM	4.83 nM
CC1(C)CCc2cc(-c3ccccc3C(F)(F)F)ccc2C1NC(=O)O[C@@H]1CN2CCC1CC2 (stereo partly drawn) [Example 96, (S)-quinuclidin-3-yl (2,2-dimethyl-6-(2-(trifluoromethyl)phenyl)-1,2,3,4-tetrahydronaphthalen-1-yl)carbamate]	3.29 nM	1.79 nM
CCOc1ccc(-c2ccc3c(c2)CCC(C)(C)C3NC(=O)O[C@@H]2CN3CCC2CC3)cc1Cl (stereo partly drawn) [Example 140, (S)-quinuclidin-3-yl (6-(3-chloro-4-ethoxyphenyl)-2,2-dimethyl-1,2,3,4-tetrahydronaphthalen-1-yl)carbamate]	1.4 nM	1.49 nM
